Results reported in PMC9919861, “Homoleptic Complexes of Heterocyclic Curcuminoids with Mg(II) and Cu(II): First Conformationally Heteroleptic Case, Crystal Structures, and Biological Properties” (Molecules, 2023).

Legend:
[1] = system: lipid peroxidation in rat brain homogenate; assay: Inhibition of lipid peroxidation (TBARS) in rat brain homogenate, FeSO4-induced; assay type: biochemical
Method: Adult male Wistar rats (200–250 g) were provided by the Instituto de Fisiología Celular, Universidad Nacional Autónoma de México (UNAM). The procedures and care of animals were conducted in conformity with the Mexican Official Norm for Animal Care and Handling NOM-062-ZOO-1999. They were maintained at 23 ± 2 °C on a 12/12 h light-dark cycle with ad libitum access to food and water.
Animal sacrifice was carried out avoiding unnecessary pain. The rats were sacrificed with CO2. The cerebral tissue (whole brain) was rapidly dissected and homogenized in phosphate-buffered saline (PBS) solution (0.2 g of KCl, 0.2 g of KH2PO4, 8 g of NaCl, and 2.16 g of NaHPO4.7H2O/L, pH adjusted to 7.4) as described elsewhere to produce a 1/10 (w/v) homogenate. The homogenate was centrifuged at 800 rcf (relative centrifugal field) for 10 min. The supernatant protein content was measured using Folin and Ciocalteu’s phenol reagent and adjusted with PBS at 2.666 mg of protein/mL.
As an index of lipid peroxidation, TBARS levels were measured using rat brain homogenates according to the method described by Ng and co-workers, with some modifications. A supernatant (375 µL) was added with 50 µL of 20 µM EDTA and 25 µL of each sample concentration dissolved in DMSO (25 µL of DMSO for the control group) and incubated at 37 °C for 30 min. The lipid peroxidation was started adding 50 µL of freshly prepared 100 µM FeSO4 solution (final concentration 10 µM) and incubated at 37 °C for 1h. The TBARS measurements were obtained as described by Ohkawa and co-workers, with some modifications. To each tube 500 µL of TBA reagent (0.5% 2-thiobarbituric acid in 0.05 N NaOH and 30% trichloroacetic acid, in 1:1 ratio) was added and the final suspension was cooled on ice for 10 min, centrifuged at 13,400 rcf for 5 min and heated at 80 °C in a water bath for 30 min. After cooling at room temperature, the absorbance of 200 µL of supernatant was measured at λ = 540 nm in a Microplate Reader Synergy/HT BIOTEK Instrument, Inc., Winooski, VT, USA. The concentration of TBARS was calculated by interpolation on a standard curve of tetra-methoxypropane (TMP) as a precursor of MDA [38]. Results are expressed as n moles of TBARS per mg of protein. The inhibition ratio (IR [%]) was calculated using the formula IR = (C − E) × 100/C, where C is the control absorbance and E is the sample absorbance. Butylated hydroxytoluene (BHT) and α tocopherol were used as positive standards. All data are presented as mean ± standard error (SEM). The data were analyzed by one-way analysis of variance (ANOVA) followed by Dunnett’s test for comparison against a control. Values of p ≤ 0.05 (*) and p ≤ 0.01 (**) were considered statistically significant.

[2] = Cytotoxicity towards healthy cell line; assay type: cell-based, monkey; conditions: monkey, COS-7 kidney cells; COS7; 25 μM; read-out: % of Inhibition (cytotoxic screening)
[3] = system: K562 (human chronic myelogenous leukemia); assay: Cytotoxicity, sulforhodamine B (SRB) microculture assay; assay type: cell-based; conditions: Homo sapiens
Method: (§1) The cytotoxicity of all compounds was tested against six cancer cell lines: U251 (human glioblastoma cell line), PC-3 (human prostate adenocarcinoma), K562 (human chronic myelogenous leukemia), HCT-15 (human colon adenocarcinoma), MCF-7 (human mammary adenocarcinoma), and SKLU-1 (human lung adenocarcinoma). Cell lines were supplied by the U.S. National Cancer Institute (NCI). The cell lines were cultured in an RPMI-1640 medium supplemented with 10% fetal bovine serum, […] L-glutamine, 10,000 units/mL penicillin G sodium, 10,000 µg/mL streptomycin sulfate, 25 µg/mL amphotericin B (Invitrogen/Gibco™, Thermo Fisher Scientific, Waltham, MA, USA), and 1% non-essential amino acids (Gibco). They were maintained at 37 °C in a humidified atmosphere with 5% CO2. […] The human tumor cytotoxicity was determined using the protein-binding dye sulforhodamine B (SRB) in a microculture assay to measure cell growth, as described in the protocols established by the NCI [39, 40, 41].

[4] = system: PC-3 (human prostate adenocarcinoma); assay: as above; assay type: cell-based; conditions: Homo sapiens, 25 μM, read-out: % of Inhibition (cytotoxic screening)
Method: as §1

[5] = system: U251 (human glioblastoma cell line); assay: as above; assay type: cell-based; conditions: Homo sapiens
Method: as §1

[6] = system: MCF-7 (human mammary adenocarcinoma); assay: as above; assay type: cell-based; conditions: Homo sapiens
Method: as §1

[7] = system: HCT-15 (human colon adenocarcinoma); assay: as above; assay type: cell-based; conditions: Homo sapiens
Method: as §1

[8] = system: SKLU-1 (human lung adenocarcinoma); assay: as above; assay type: cell-based; conditions: Homo sapiens
Method: as §1

[9] = 25 μM, read-out: % of Inhibition (cytotoxic screening)

For Cn1cccc1/C=C/C(=O)/C=C(O)/C=C/c1cccn1C [N-methyl-pyrCurc, N-methylpyrrolcurcumin], the “% of Inhibition (lipoperoxidation screening)” value (“% of Inhibition” below) ([1]; concentration 1 (unit not given)) was 13.71%, the “% of Inhibition” value ([1]; concentration 10 (unit not given)) was 17.41% and the “% of Inhibition” value ([1]; concentration 100 (unit not given)) was 84.75%. The inhibition at 25 µM [2] was 100%, the IC50 [3] was 12.9 ± 1 µM and the inhibition at 25 µM [3, 9] was 65.8%. The inhibition at 25 µM [4] was 60.4%, the IC50 ([5]; U-251) was 25.8 ± 2.7 µM and the inhibition at 25 µM ([5]; U-251, 25 μM, read-out: % of Inhibition (cytotoxic screening)) was 52.8%. The IC50 ([6]; MCF7) was 27.3 ± 4.3 µM, the inhibition at 25 µM ([6]; MCF7, 25 μM, read-out: % of Inhibition (cytotoxic screening)) was 99.9% and the IC50 [7] was 22.4 ± 2.4 µM. It also gave an inhibition at 25 µM [7, 9] of 18.1%, an IC50 ([8]; SK-LU-1) of 13 ± 1.9 µM and an inhibition at 25 µM ([8]; SK-LU-1, 25 μM, read-out: % of Inhibition (cytotoxic screening)) of 100%.
